Read-outs that look alike come from different tables or passages of the source.
Assays:
[1] = test system: Key Grass and Sedge Weeds as well as Grass Crops; assay: Post-emergent Test II herbicidal activity (Table 6); type: in vivo; settings: post-emergence, 336 h; for pest or weed control at 70 g/ha: application rate 70 g ai/ha; for pest or weed control at 140 g/ha: application rate 140 g ai/ha
Procedure, shortened: (§1)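 Greenhouse-grown plants at first or second true leaf stage were sprayed post-emergence with compound in acetone/DMSO-based aqueous spray containing crop oil concentrate and surfactant, at 187 L/ha, highest rate plus ½× to 1/16× dilutions. After 14 d, injury was scored visually versus untreated plants, 0 (none) to 100% (complete kill).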

[2] = test system: Key Broadleaf Weed and Crop Species; assay: Post-emergent Test II herbicidal activity (Table 5); type: in vivo; settings: post-emergence, 336 h, post-emergent, 14 days after application; for pest or weed control at 70 g/ha: 70 g ai/ha; for pest or weed control at 140 g/ha: 140 g ai/ha
Procedure, shortened: as §1

[3] = Triticum aestivum, TRZSS (wheat), read-out: Visual Growth Reduction (%) 14 Days After Application, TRZSS
[4] = CYPES: yellow nutsedge (Cyperus esculentus), read-out: Visual Growth Reduction (%) 14 Days After Application, CYPES
[5] = DIGSA: crabgrass (Digitaria sanguinalis), read-out: Visual Growth Reduction (%) 14 Days After Application, DIGSA
[6] = ECHCG: barnyardgrass (Echinochloa crus-galli), read-out: Visual Growth Reduction (%) 14 Days After Application, ECHCG
[7] = ORYSA: rice (Oryza sativa), read-out: Visual Growth Reduction (%) 14 Days After Application, ORYSA
[8] = SETFA: giant foxtail (Setaria faberi), read-out: Visual Growth Reduction (%) 14 Days After Application, SETFA
[9] = SORVU: grain sorghum (Sorghum vulgare), read-out: Visual Growth Reduction (%) 14 Days After Application, SORVU
[10] = ZEAMX: maize, corn (Zea mays), read-out: Visual Growth Reduction (%) 14 Days After Application, ZEAMX
[11] = ABUTH: velvetleaf (Abutilon theophrasti), read-out: Visual Growth Reduction (%) 14 Days After Application ABUTH
[12] = AMARE: redroot pigweed (Amaranthus retroflexus), read-out: Visual Growth Reduction (%) 14 Days After Application AMARE
[13] = BRSNN: oilseed-rape, canola (Brassica napus), read-out: Visual Growth Reduction (%) 14 Days After Application BRSNN
[14] = CHEAL: lambsquarters (Chenopodium album), read-out: Visual Growth Reduction (%) 14 Days After Application CHEAL
[15] = EPHHL: wild poinsettia (Euphorbia heterophylla), read-out: Visual Growth Reduction (%) 14 Days After Application EPHHL
[16] = HELAN: sunflower (Helianthus annuus), read-out: Visual Growth Reduction (%) 14 Days After Application HELAN
[17] = VIOTR: wild pansy (Viola tricolor), read-out: Visual Growth Reduction (%) 14 Days After Application VIOTR

Nc1cc(-c2ccc(I)c(F)c2)nc(C(=O)O)c1Cl [Compound 77, 4-amino-3-chloro-6-(3-fluoro-4-iodophenyl)picolinic acid]
pest or weed control at 70 g/ha [1, 3]: 45 to 59%
pest or weed control at 140 g/ha [1, 3]: 45 to 59%
pest or weed control at 70 g/ha [1, 4]: 0 to 29%
pest or weed control at 140 g/ha [1, 4]: 45 to 59%
pest or weed control at 70 g/ha [1, 5]: 75 to 84%
pest or weed control at 140 g/ha [1, 5]: 85 to 94%
pest or weed control at 70 g/ha [1, 6]: 60 to 74%
pest or weed control at 140 g/ha [1, 6]: 60 to 74%
pest or weed control at 70 g/ha [1, 7]: 0 to 29%
pest or weed control at 140 g/ha [1, 7]: 0 to 29%
pest or weed control at 70 g/ha [1, 8]: 0 to 29%
pest or weed control at 140 g/ha [1, 8]: 0 to 29%
pest or weed control at 70 g/ha [1, 9]: 45 to 59%
pest or weed control at 140 g/ha [1, 9]: 45 to 59%
pest or weed control at 70 g/ha [1, 10]: 0 to 29%
pest or weed control at 140 g/ha [1, 10]: 0 to 29%
pest or weed control at 70 g/ha [2, 11]: 85 to 94%
pest or weed control at 140 g/ha [2, 11]: 95 to 100%
pest or weed control at 70 g/ha [2, 12]: 95 to 100%
pest or weed control at 140 g/ha [2, 12]: 95 to 100%
pest or weed control at 70 g/ha [2, 13]: 75 to 84%
pest or weed control at 140 g/ha [2, 13]: 85 to 94%
pest or weed control at 70 g/ha [2, 14]: 95 to 100%
pest or weed control at 140 g/ha [2, 14]: 95 to 100%
pest or weed control at 70 g/ha [2, 15]: 95 to 100%
pest or weed control at 140 g/ha [2, 15]: 95 to 100%
pest or weed control at 70 g/ha [2, 16]: 85 to 94%
pest or weed control at 140 g/ha [2, 16]: 85 to 94%
pest or weed control at 70 g/ha [2, 17]: 0 to 29%
pest or weed control at 140 g/ha [2, 17]: 0 to 29%

Cc1c(-c2ccc(Br)cc2)nc(C(=O)O)c(Cl)c1N [Compound 78, 4-Amino-6-(4-bromophenyl)-3-chloro-5-methylpicolinic acid]
pest or weed control at 70 g/ha [1, 3]: 45 to 59%
pest or weed control at 140 g/ha [1, 3]: 45 to 59%
pest or weed control at 70 g/ha [1, 4]: 0 to 29%
pest or weed control at 140 g/ha [1, 4]: 95 to 100%
pest or weed control at 70 g/ha [1, 5]: 0 to 29%
pest or weed control at 140 g/ha [1, 5]: 0 to 29%
pest or weed control at 70 g/ha [1, 6]: 0 to 29%
pest or weed control at 140 g/ha [1, 6]: 0 to 29%
pest or weed control at 70 g/ha [1, 7]: 0 to 29%
pest or weed control at 140 g/ha [1, 7]: 0 to 29%
pest or weed control at 70 g/ha [1, 8]: 45 to 59%
pest or weed control at 140 g/ha [1, 8]: 60 to 74%
pest or weed control at 70 g/ha [1, 9]: 0 to 29%
pest or weed control at 140 g/ha [1, 9]: 0 to 29%
pest or weed control at 70 g/ha [1, 10]: 0 to 29%
pest or weed control at 140 g/ha [1, 10]: 30 to 44%
pest or weed control at 70 g/ha [2, 11]: 95 to 100%
pest or weed control at 140 g/ha [2, 11]: 95 to 100%
pest or weed control at 70 g/ha [2, 12]: 85 to 94%
pest or weed control at 140 g/ha [2, 12]: 95 to 100%
pest or weed control at 70 g/ha [2, 13]: 85 to 94%
pest or weed control at 140 g/ha [2, 13]: 95 to 100%
pest or weed control at 70 g/ha [2, 14]: 85 to 94%
pest or weed control at 140 g/ha [2, 14]: 85 to 94%
pest or weed control at 70 g/ha [2, 15]: 0 to 29%
pest or weed control at 140 g/ha [2, 15]: 0 to 29%
pest or weed control at 70 g/ha [2, 16]: 95 to 100%
pest or weed control at 140 g/ha [2, 16]: 95 to 100%
pest or weed control at 70 g/ha [2, 17]: 0 to 29%
pest or weed control at 140 g/ha [2, 17]: 0 to 29%

— US9113629B2, “4-amino-6-(4-substituted-phenyl)-picolinates and 6-amino-2-(4-substituted-phenyl)-pyrimidine-4-carboxylates and their use as herbicides” (DOW AGROSCIENCES LLC, priority 2013, dated 2015)
